Source: patent US8003655B2, “Substituted sulphoximines as TIE2 inhibitors and salts thereof, pharmaceutical compositions comprising same, methods of preparing same and uses of same” (Bayer Schering Pharma AG, priority 2006, dated 2011)
pIC50: −log10 of the molar value.

Tests used:
Assay type in all cases: biochemical
CDK2/CycE = biological target: T1, CDK2/CycE (Homo sapiens, UniProt P24941); test: CDK2 HTRF Assay (assay 4); conditions: 10 μM ATP, pIC50 = −log IC50 in molar concentration
T1 construct: GST; purchased ProQinase GmbH (Freiburg, Germany); host or cells: insect cells (Sf9)
Text: CDK2/CycE-inhibitory activity of compounds of the present invention was quantified employing the CDK2/CycE HTRF assay as described in the following paragraphs.
Recombinant fusion proteins of GST and human CDK2 and of GST and human CycE, expressed in insect cells (Sf9) and purified by Glutathion-Sepharose affinity chromatography, were purchase from ProQinase GmbH (Freiburg, Germany). As substrate for the kinase reaction biotinylated peptide biotin-Ttds-YISPLKSPYKISEG (C-terminus in amid form) was used which can be purchased e.g. form the company JERINI peptide technologies (Berlin, Germany).
CDK2/CycE was incubated for 60 min at 22° C. in the presence of different concentrations of test compounds in 5 μl assay buffer [50 mM Tris/HCl pH 8.0, 10 mM MgCl2, 1.0 mM dithiothreitol, 0.1 mM sodium ortho-vanadate, 10 μM adenosine-tri-phosphate (ATP), 0.75 μM substrate, 0.01% (v/v) Nonidet-P40 (Sigma), 1% (v/v) dimethylsulfoxide]. The concentration of CDK2/CycE was adjusted depending of the activity of the enzyme lot and was chosen appropriate to have the assay in the linear range, typical concentrations were in the range of 1 ng/ml. The reaction was stopped by the addition of 5 μl of a solution of HTRF detection reagents (0.2 μM streptavidine-XLent and 3.4 nM Phospho-(Ser) CDKs Substrate Antibody [product #2324B, Cell Signalling Technology, Danvers, Mass., USA} and 4 nM Prot-A-EuK [Protein A labeled with Europium Cryptate from Cis biointernational, France, product no. 61PRAKLB]) in an aqueous EDTA-solution (100 mM EDTA, 800 mM KF, 0.2% (w/v) bovine serum albumin in 100 mM HEPES/NaOH pH 7.0).

Tie2 = biological target: T2, Tie2 (Homo sapiens, UniProt Q02763); test: Tie2-Kinase HTRF-Assay without kinase preactivation (assay 2); conditions: 10 μM ATP, pIC50 = −log IC50 in molar concentration, read-out: Tie 2 activity (assay 2)
T2 construct: A recombinant fusion protein of GST and the intracellular domains of Tie2; GST; made in house; host or cells: insect cells (Hi-5)
Text: Tie2-inhibitory activity of compounds of the present invention was quantified employing two Tie2 HTRF assay as described in the following paragraphs.
A recombinant fusion protein of GST and the intracellular domains of Tie2, expressed in insect cells (Hi-5) and purified by Glutathion-Sepharose affinity chromatography was used as kinase. Alternatively, commercially available GST-Tie2-fusion protein (Upstate Biotechnology, Dundee, Scotland) can be used as substrate for the kinase reaction the biotinylated peptide biotin-Ahx-EPKDDAYPLYSDFG (C-terminus in amid form) was used which can be purchased e.g. from the company Biosynthan GmbH (Berlin-Buch, Germany). Detection of phosphorylated product is achieved specifically by a trimeric detection complex consisting of the phosphorylated substrate, streptavidin-XLent (SA-XLent) which binds to biotin, and Europium Cryptate-labeled anti-phosphotyrosine antibody PT66 which binds to phosphorylated tyrosine.
Tie2 (3.5 ng/measurement point) was incubated for 60 min at 22° C. in the presence of 10 μM adenosine-tri-phosphate (ATP) and 1 μM substrate peptide (biotin-Ahx-EPKDDAYPLYSDFG-NH2) with different concentrations of test compounds (0 μM and concentrations in the range 0.001-20 μM) in 5 μl assay buffer [50 mM Hepes/NaOH pH 7, 10 mM MgCl2, 0.5 mM MnCl2, 1.0 mM dithiothreitol, 0.01% NP40, protease inhibitor mixture (“Complete w/o EDTA” from Roche, 1 tablet per 2.5 ml), 1% (v/v) dimethylsulfoxide]. The reaction was stopped by the addition of 5 μl of an aqueous buffer (25 mM Hepes/NaOH pH 7.5, 0.28% (w/v) bovine serum albumin) containing EDTA (90 mM) and the HTRF (Homogeneous Time Resolved Fluorescence) detection reagents streptavidine-XLent (0.2 μM, from Cis Biointernational, Marcoule, France) and PT66-Eu-Chelate (0.3 ng/μl; a europium-chelate labelled anti-phospho-tyrosine antibody from Perkin Elmer).
(§1) The resulting mixture was incubated 1 h at 22° C. to allow the binding of the biotinylated phosphorylated peptide to the streptavidine-XLent and the PT66-Eu-Chelate. Subsequently the amount of phosphorylated substrate peptide was evaluated by measurement of the resonance energy transfer from the PT66-Eu-Chelate to the streptavidine-XLent. Therefore, the fluorescence emissions at 620 nm and 665 nm after excitation at 350 nm was measured in a HTRF reader, e.g. a Rubystar (BMG Labtechnologies, Offenburg, Germany) or a Viewlux (Perkin-Elmer). The ratio of the emissions at 665 nm and at […] was taken as the measure for the amount of phosphorylated substrate peptide. The data were normalised (enzyme reaction without inhibitor=0% inhibition, all other assay components but no enzyme=100% inhibition) and IC50 values were calculated by a 4 parameter fit using an inhouse software.

preactivated Tie2 = biological target: T3, preactivated Tie2 (Homo sapiens, UniProt Q02763); test: Tie2-Kinase HTRF-Assay with kinase preactivation (assay 3); conditions: 10 μM ATP, pIC50 = −log IC50 in molar concentration, read-out: Tie 2 activity (assay 3)
T3 construct: A recombinant fusion protein of GST and the intracellular domains of Tie2; GST; made in house; host or cells: insect cells (Hi-5)
Procedure: Assay 3: Tie2-Kinase HTRF-Assay with Kinase Preactivation
A recombinant fusion protein of GST and the intracellular domains of Tie2, expressed in insect cells (Hi-5) and purified by Glutathion-Sepharose affinity chromatography was used as kinase. As substrate for the kinase reaction the biotinylated peptide biotin-Ahx-EPKDDAYPLYSDFG (C-terminus in amid form) was used which can be purchased e.g. from the company Biosynthan GmbH (Berlin-Buch, Germany).
For activation, Tie2 was incubated at a conc. 12.5 ng/μl of for 20 min at 22° C. in the presence of 250 μM adenosine-tri-phosphate (ATP) in assay buffer [50 mM Hepes/NaOH pH 7, 10 mM MgCl2, 0.5 mM MnCl2, 1.0 mM dithiothreitol, 0.01% NP40, protease inhibitor mixture (“Complete w/o EDTA” from Roche, 1 tablet per 2.5 ml)].
For the subsequent kinase reaction, the preactivated Tie2 (0.5 ng/measurement point) was incubated for 20 min at 22° C. in the presence of 10 μM adenosine-tri-phosphate (ATP) and 1 μM substrate peptide (biotin-Ahx-EPKDDAYPLYSDFG-NH2) with different concentrations of test compounds (0 μM and concentrations in the range 0.001-20 μM) in 5 μl assay buffer [50 mM Hepes/NaOH pH 7, 10 mM MgCl2, 0.5 mM MnCl2, 0.1 mM sodium ortho-vanadate, 1.0 mM dithiothreitol, 0.01% NP40, protease inhibitor mixture (“Complete w/o EDTA” from Roche, 1 tablet per 2.5 ml), 1% (v/v) dimethylsulfoxide]. The reaction was stopped by the addition of 5 μl of an aqueous buffer (25 mM Hepes/NaOH pH 7.5, 0.28% (w/v) bovine serum albumin) containing EDTA (90 mM) and the HTRF (Homogeneous Time Resolved Fluorescence) detection reagents streptavidine-XLent (0.2 μM, from Cis Biointernational, Marcoule, France) and PT66-Eu-Chelate (0.3 ng/μl; a europium-chelate labelled anti-phospho-tyrosine antibody from Perkin Elmer).
as §1

T3 sequence (Q02763 770-1124 limits assumed): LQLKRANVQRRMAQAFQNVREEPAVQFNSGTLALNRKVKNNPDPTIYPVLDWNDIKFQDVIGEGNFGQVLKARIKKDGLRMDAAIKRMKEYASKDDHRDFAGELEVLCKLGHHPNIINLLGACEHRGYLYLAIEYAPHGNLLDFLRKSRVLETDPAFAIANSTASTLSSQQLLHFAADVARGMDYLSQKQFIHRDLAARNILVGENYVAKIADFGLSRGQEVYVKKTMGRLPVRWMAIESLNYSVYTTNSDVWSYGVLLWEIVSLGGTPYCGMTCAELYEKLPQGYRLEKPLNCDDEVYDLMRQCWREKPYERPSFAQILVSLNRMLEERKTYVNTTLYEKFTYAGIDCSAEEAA
T2 sequence (Q02763 770-1124 limits assumed): as above

pIC50 (CDK2/CycE)	pIC50 (Tie2)	pIC50 (preactivated Tie2)	Structure (SMILES)
< 5.00	> 7.00	> 7.00	CCOC(=O)N=S(C)(=O)c1ccc(Nc2ncc(-c3ccc(NC(=O)Nc4cccc(C(F)(F)F)c4)cc3)c(N[C@H](C)CO)n2)cc1 (mixture of isomers) [Example 7, 1-{4-[2-({4-[(RS)-N-(Ethoxycarbonyl)-S-methylsulfonimidoyl]phenyl}amino)-4-{[(R)-2-hydroxy-1-methylethyl]amino}-pyrimidin-5-yl]-phenyl}-3-[3-(trifluoromethyl)-phenyl]urea]
< 5.00	6.00 to 7.00	6.00 to 7.00	COc1nc(Nc2cccc(S(C)(=N)=O)c2)ncc1-c1ccc(NS(=O)(=O)c2cccc(Cl)c2Cl)c(F)c1 (racemic) [Example 46, 2,3-Dichloro-N-[2-fluoro-4-(4-methoxy-2-{[3-(RS)-(S-methylsulfonimidoyl)phenyl]amino}pyrimi-din-5-yl)phenyl]benzenesul-fonamide]
< 5.00	> 7.00	> 7.00	COc1nc(Nc2cccc(S(C)(=N)=O)c2)ncc1-c1ccc(NC(=O)Nc2cc(C(F)(F)F)ccc2F)c(F)c1 (racemic) [Example 45, 1-[2-Fluoro-4-(4-methoxy-2-{[3-(RS)-(S-methylsulfon-imidoyl)phenyl]-amino}pyrimidin-5-yl)phenyl]-3-[2-fluoro-5-(trifluoromethyl)phenyl]urea]
